# Source: patent publication US20040034019A1, “Piperazine and piperidine derivatives” (priority 2002, published 2004)
# Test system: rat embryo ventral mesencephalic cells
# Test: Neuroprotection assay (NMDA neuroexcitotoxic injury, high affinity 3H-dopamine uptake)
# Assay type: cell-based, Sprague-Dawley rat
# Details: embryonic day 15 rat VM cell culture, NMDA (100-400 μM) for 20 hours
# From the text: The neuroprotective activity of the compounds of this invention may be assayed using rat embryo ventral mesencephalic cells in culture which are subsequently exposed to the glutamate receptor agonist NMDA. This assay is described in detail in the example section.
# The ventral mesencephalic region was dissected out of embryonic day 15 Sprague-Dawley rat embryos (Harlan), dissociated into single cell suspension by a combination of trypsinization and trituration (Costantini et al., Neurobiol Dis., pp. 97-106 (1998). Dissociated VM cells were plated into poly-L-ornithine-coated 96-well plates at a density of 85,000 cells/well in 100 uL of DMEM supplemented with 18% heat-inactivated horse serum, 0.24% glucose, 2 mM glutamine and 50 u/ml penicillin/streptomycin and incubated in a 5% CO2 incubator. After one day in culture (DIV1), the medium was replaced with 100 μL of a defined medium (DMEM supplemented with 1× N2 cocktail (Gibco-BRL), 0.12% glucose, 2 mM glutamine, and 50 units/ml penicillin/streptomycin) containing DMSO or various concentrations of the compounds of this invention. On DIV5, neuroexcitotoxic injury was induced by the addition of various concentrations of the glutamate receptor agonist NMDA (100-400 μM). Cultures were incubated with the neurotoxin for 20 hours and the effects of neurophilin compounds were assessed using high affinity ^3H-dopamine uptake according to a procedure published by Park and Mytilineou [Brain Res., 599, pp. 83-97 (1992)].
row,SMILES,EC50 [nM]
1,O=C([C@@H]1C[C@@H](c2ccccc2)CN1Cc1ccccc1)N1CCN(C(c2ccc(F)cc2)c2ccc(F)cc2)CC1 [Compound 251],> 500
2,CCN1CC[C@@H](c2ccccc2)[C@H]1C(=O)N1CCC(Cc2ccccc2)CC1 [Compound 252],> 500
3,O=C([C@@H]1[C@H](c2ccccc2)CCN1Cc1ccccc1)N1CCN(C(c2ccc(F)cc2)c2ccc(F)cc2)CC1 [Compound 253],> 500
4,CCN1CC[C@H]1C(=O)N1CCN(C(c2ccc(F)cc2)c2ccc(F)cc2)CC1 [Compound 254],100 to 500
5,CCN1CCC[C@H]1C(=O)N1CCC(Cc2ccc(F)cc2)CC1 [Compound 259],100 to 500
6,C=CCN1CCC[C@H]1C(=O)N1CCC(Cc2ccc(F)cc2)CC1 [Compound 263],< 100
7,CC(C)=CCN1CCC[C@H]1C(=O)N1CCC(Cc2ccc(F)cc2)CC1 [Compound 265],< 100
8,O=C([C@@H]1CCCN1CC1CC1)N1CCC(Cc2ccc(F)cc2)CC1 [Compound 267],< 100
9,O=C([C@@H]1CCCN1C/C=C/c1ccccc1)N1CCC(Cc2ccc(F)cc2)CC1 [Compound 269],100 to 500
10,O=C([C@@H]1CCCN1Cc1ccc(F)cc1)N1CCC(Cc2ccc(F)cc2)CC1 [Compound 271],< 100
11,O=C(C1CCN(Cc2ccccc2)CC1)N1CCC(Cc2ccc(F)cc2)CC1 [Compound 272],100 to 500
12,O=C([C@@H]1CCCN1CCc1ccccc1)N1CCC(Cc2ccc(F)cc2)CC1 [Compound 273],< 100
13,Cc1ccc(CN2CCC[C@H]2C(=O)N2CCC(Cc3ccc(F)cc3)CC2)cc1 [Compound 275],< 100
14,O=C([C@@H]1CCCN1Cc1ccc(F)c(F)c1)N1CCC(Cc2ccc(F)cc2)CC1 [Compound 277],< 100
15,O=C(C1CCN(CC2CC2)CC1)N1CCC(Cc2ccc(F)cc2)CC1 [Compound 278],< 100
16,O=C([C@@H]1CCCN1Cc1cccc(F)c1)N1CCC(Cc2ccc(F)cc2)CC1 [Compound 279],< 100
